Assay results: US10781185B2, “Heterocyclic compounds for the inhibition of PASK” (BioEnergenix LLC, priority 2009, dated 2020)
pIC50: −log10 of the molar value.

Columns and labels:
PASK [1] = molecular target: PASK (UniProt # Q96RG2; human recombinant N-terminal GST tagged construct, residues 879-1323) (Homo sapiens (Human), UniProt Q96RG2); assay: PASK ATP Radiochemical Assay; format: biochemical; conditions: 33P-ATP radiochemical, Myelin Basic Protein substrate; read-out: IC50 Kinase Domain
Procedure: PASK ATP Radiochemical Assay
Test compounds in DMSO are then added and the mixture, followed by delivery of ^33P-ATP (specific activity 0.01 μCi/μl final) to initiate the reaction. […] The entire reaction mixture is washed through onto a P81 Phosphocellulose paper and washed three times for 10 minutes in 75 mM phosphoric acid and once in methanol prior to drying and scintillation counting.

PASK [2] = molecular target: PASK (Homo sapiens (Human), UniProt Q96RG2); assay: PAS Kinase FRET Assay; format: biochemical; conditions: TR-FRET, Ulight-peptide substrate; read-out: IC50 Kinase Domain
Description: PAS Kinase FRET Assay The aim of the FRET assay is to determine the inhibition potential of test compounds on targeted kinase. This assay platform provides a homogenous screening method for measuring kinase activity by quantitating the amount of phospho-substrate in solution following a kinase reaction. In the presence of kinase and ATP, the Ulight-peptide is phosphorylated and captured by an anti-phospho-substrate antibody, which brings the Eu chelate donor and Ulight acceptor dyes into close proximity. […] The contents of the plate were and incubated at RT for 1 h. The reaction was stopped by adding 5 μl of stop solution to each test well followed by mixing and incubation at RT for 10 minutes. 5 μl of detection mix (detection antibody diluted in detection buffer) was added; the contents of the plate were mixed and then incubated in the dark for 1 hour at RT. […] The results were graphed to calculate the EC50. Titration of ATP at the EC50 concentration of kinase to determine ATP Km,app. was performed using the following method. […] The contents of the plate were and incubated at RT for 1 h. The reaction was stopped by adding 5 μl of stop solution to each test well followed by mixing and incubation at RT for 10 minutes. 5 μl of detection mix (detection antibody diluted in detection buffer) was added; the contents of the plate were mixed and then incubated in the dark for 1 hour at RT. […] The results were graphed to calculate the EC50 as the ATP Km,app. […] If compound is not soluble under this condition, it was diluted to 3 mM. Kinase reaction buffer was prepared containing 10 mM MgCl2, 50 mM HEPES, 1 mM EGTA, 0.01% TWEEN-20, 2 mM DTT. […] As a positive control, 2.5 μl of positive compound was added to assay wells, and 2.5 μl of DMSO to assay wells as vehicle control. Kinase solution was prepared in reaction buffer at 2× final assay concentration. Kinase solution (5 μl) was added to each well of the assay plate. The substrate and ATP solution was prepared in kinase reaction buffer at 4× final assay concentration. The kinase reaction was started by adding 2.5 μl of substrate+ATP mix solution to each well of the assay plate. The plate is mixed on a plate shaker; then covered and allowed to react for 2 hours in the dark at 25° C. without shaking. The reaction was stopped by adding 5 μl of stop solution to each test well followed by mixing and incubation at RT for 10 minutes in the dark. 5 μl of detection mix (detection antibody diluted in detection buffer) was added; the contents of the plate were mixed and then incubated in the dark for 1 hour at RT.

PASK (UniProt # Q96RG2; human recombinant N-terminal GST tagged construct, residues 879-1323) (Homo sapiens (Human), UniProt Q96RG2), sequence (Q96RG2 879-1323, change not shown): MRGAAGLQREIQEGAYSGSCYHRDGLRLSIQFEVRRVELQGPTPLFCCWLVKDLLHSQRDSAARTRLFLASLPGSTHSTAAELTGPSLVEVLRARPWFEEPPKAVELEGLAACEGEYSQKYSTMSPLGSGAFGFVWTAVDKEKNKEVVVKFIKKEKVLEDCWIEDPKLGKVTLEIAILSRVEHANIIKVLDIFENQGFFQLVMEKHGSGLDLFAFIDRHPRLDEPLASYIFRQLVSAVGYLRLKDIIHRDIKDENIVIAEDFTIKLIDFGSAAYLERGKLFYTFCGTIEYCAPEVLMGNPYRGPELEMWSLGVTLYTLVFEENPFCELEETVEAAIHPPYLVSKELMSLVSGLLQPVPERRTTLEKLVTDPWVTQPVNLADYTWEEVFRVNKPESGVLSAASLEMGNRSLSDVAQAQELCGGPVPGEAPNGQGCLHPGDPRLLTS
PASK (Homo sapiens (Human), UniProt Q96RG2), sequence (Q96RG2 999-1251): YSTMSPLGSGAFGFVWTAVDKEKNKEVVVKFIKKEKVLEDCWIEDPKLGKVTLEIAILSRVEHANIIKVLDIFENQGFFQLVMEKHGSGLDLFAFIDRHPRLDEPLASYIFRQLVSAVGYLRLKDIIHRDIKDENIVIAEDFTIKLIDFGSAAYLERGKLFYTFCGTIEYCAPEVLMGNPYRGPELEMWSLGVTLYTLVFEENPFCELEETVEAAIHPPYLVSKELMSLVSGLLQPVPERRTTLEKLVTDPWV

pIC50 (PASK [1]) | pIC50 (PASK [2]) | SMILES
> 5.00 | ≥ 5.00 | CC(C)N(C)c1nc2cc(C(=O)O)ccc2nc1-c1ccc2c(c1)OCCO2 [Example 81, 2-(2,3-Dihydrobenzo[b][1,4]dioxin-6-yl)-3-(isopropyl(methyl)amino)quinoxaline-6-carboxylic acid]
> 5.00 | ≥ 5.00 | CC(C)N(C)c1nc2cc(C(=O)O)ccc2nc1-c1cc2ccccc2o1 [Example 89, 2-(Benzofuran-2-yl)-3-(isopropyl(methyl)amino)quinoxaline-6-carboxylic acid]
> 5.00 | ≥ 5.00 | CC(C)N(C)c1nc2cc(C(=O)O)ccc2nc1-c1ccc(F)cc1 [Example 57, 2-(4-Fluorophenyl)-3-(isopropyl(methyl)amino)quinoxaline-6-carboxylic acid]
> 5.00 | ≥ 5.00 | CC1(C)CCCN(c2nc3cc(C(=O)O)ccc3nc2-c2ccc(F)cc2)C1 [Example 79, 3-(3,3-Dimethylpiperidin-1-yl)-2-(4-fluorophenyl)quinoxaline-6-carboxylic acid]
> 5.00 | ≥ 5.00 | CC(C)N(C)c1nc2cc(C(=O)O)ccc2nc1-c1ccc2[nH]ccc2c1 [Example 84, 2-(1H-Indol-5-yl)-3-(isopropyl(methyl)amino)quinoxaline-6-carboxylic acid]
> 5.00 | ≥ 5.00 | CC(C)N(C)c1nc2cc(C(=O)O)ccc2nc1-c1ccc2c(c1)OCO2 [Example 77, 2-(Benzo[d][1,3]dioxol-5-yl)-3-(isopropyl(methyl)amino)quinoxaline-6-carboxylic acid]

More lines, now with the values behind:

SMILES | pIC50 (PASK [1]) | pIC50 (PASK [2])
COC[C@H]1CCCN1c1nc2cc(C(=O)O)ccc2nc1-c1ccccc1 [Example 51, (R)-3-(2-(Methoxymethyl)pyrrolidin-1-yl)-2-phenylquinoxaline-6-carboxylic acid] | > 5.00 | ≥ 5.00
O=C(O)c1ccc2nc(-c3ccccc3)c(N3CCCc4ccccc43)nc2c1 [Example 40, 3-(3,4-Dihydroquinolin-1(2H)-yl)-2-phenylquinoxaline-6-carboxylic acid] | > 5.00 | ≥ 5.00
C[C@H]1CCCN1c1nc2cc(C(=O)O)ccc2nc1-c1ccc2c(c1)OCO2 [Example 83, 2-(Benzo[d][1,3]dioxol-5-yl)-3-((S)-2-methylpyrrolidin-1-yl)quinoxaline-6-carboxylic acid] | > 5.00 | ≥ 5.00
O=C(O)c1ccc2nc(-c3ccc(F)cc3)c(N3CCCCCC3)nc2c1 [Example 76, 3-(Azepan-1-yl)-2-(4-fluorophenyl)quinoxaline-6-carboxylic acid] | > 5.00 | ≥ 5.00
O=C(O)c1ccc2nc(-c3ccc(F)cc3)c(N3CCCCC3)nc2c1 [Example 75, 2-(4-Fluorophenyl)-3-(piperidin-1-yl)quinoxaline-6-carboxylic acid] | > 5.00 | ≥ 5.00
O=C(O)c1ccc2nc(-c3ccccc3)c(N3CCC[C@@H]3CO)nc2c1 [Example 52, (R)-3-(2-(Hydroxymethyl)pyrrolidin-1-yl)-2-phenylquinoxaline-6-carboxylic acid] | > 5.00 | ≥ 5.00
COc1ccc(-c2nc3ccc(C(=O)O)cc3nc2N(C)C(C)C)cc1 [Example 58, 3-(Isopropyl(methyl)amino)-2-(4-methoxyphenyl)quinoxaline-6-carboxylic acid] | > 5.00 | ≥ 5.00
